Measured values taken from patent US8585782B2, “Use of specific bis(biphenyl)triazine derivatives and mixtures thereof as UV absorbers” (BASF SE, priority 2010, dated 2013).

Experiment: Measurement of solubility in capric/caprylic triglyceride
Format: physicochemical
Conditions: commercial triazine derivatives, state-of-the-art comparison

Row | solubility in the cosmetic oil capric/caprylic triglyceride [%] | SMILES
1 | 3 | CCCCC(CC)COC(=O)c1ccc(Nc2nc(Nc3ccc(C(=O)OCC(CC)CCCC)cc3)nc(Nc3ccc(C(=O)OCC(CC)CCCC)cc3)n2)cc1 (centres unmarked) [EHT, Ethylhexyl Triazone]
2 | 6 | CCCCC(CC)COc1ccc(-c2nc(-c3ccc(OC)cc3)nc(-c3ccc(OCC(CC)CCCC)cc3O)n2)c(O)c1 (centres unmarked) [Tinosorb S]
